Source: ChEMBL document CHEMBL1201862, “PubChem BioAssay data set” (2004)
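Cultured in 96-well plates, cells were exposed to test compound for 48 hours across five concentrations. Here, GI50 denotes the concentration required for 50% inhibition of growth.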 Calls of active or inactive are those of the source. Cut-off read from the data, not from the text of the source: active = GI50 up to about 1.1 µM and inactive = higher.

How the values were obtained:
Assay in all cases: NCI anticancer screen, dose series, 48 h
[1] = test system: SN12C
[2] = test system: K562
[3] = test system: HOP-62
[4] = test system: IGROV-1
[5] = test system: TK-10
[6] = test system: SNB-19
[7] = test system: SK-OV-3
[8] = test system: M14
[9] = test system: SK-MEL-28
[10] = test system: SNB-75
[11] = test system: MOLT-4
[12] = test system: 786-0
[13] = test system: LOX IMVI
[14] = test system: UO-31
[15] = test system: NCI-H522
[16] = test system: KM12

Measured: GI50

CCN(CC)c1ccc(/N=C2/C=CC(=C(C#N)C#N)c3ccccc32)c(C)c1
inactive: [1] 2.53 µM | [2] 1.56 µM | [3] 2.2 µM | [4] 2.73 µM | [5] 3.25 µM | [6] 3.78 µM | [7] 3.83 µM | [8] 1.48 µM | [9] 1.64 µM | [10] 1.33 µM | [11] 1.96 µM | [12] 2.22 µM | [13] 1.72 µM | [14] 2.29 µM

CCOc1cc2c[n+](C)c3c4cc(OC)c(OC)cc4ccc3c2cc1OC
inactive: [1] > 100 µM | [2] > 100 µM | [3] > 100 µM | [4] > 100 µM | [5] > 100 µM | [6] > 100 µM | [8] > 100 µM | [9] > 100 µM | [10] > 100 µM | [11] > 100 µM | [12] 17.7 µM | [13] > 100 µM | [15] > 100 µM | [16] > 100 µM | [14] > 100 µM

Cc1cccc(C)c1NC(=O)C(=O)CC(=O)c1cccc([N+](=O)[O-])c1
inactive: [1] > 100 µM | [2] > 100 µM | [3] > 100 µM | [4] > 100 µM | [5] > 100 µM | [6] > 100 µM | [8] > 100 µM | [9] > 100 µM | [10] > 100 µM | [11] > 100 µM | [12] > 100 µM | [15] > 100 µM | [16] > 100 µM | [14] > 100 µM

CSc1nc(-c2ccccc2)nc(N2CCOCC2)[s+]1
inactive: [1] > 100 µM | [2] 37.6 µM | [3] > 100 µM | [4] > 100 µM | [5] > 100 µM | [6] > 100 µM | [7] > 100 µM | [8] > 100 µM | [9] > 100 µM | [10] > 100 µM | [11] 26.8 µM | [12] > 100 µM | [13] 43 µM | [15] 32.8 µM | [16] > 100 µM | [14] > 100 µM

COc1ccc(CC(=O)c2cc(OC)c(OC)cc2C)cc1OC
inactive: [1] 55.1 µM | [2] 57.5 µM | [3] > 100 µM | [4] 14 µM | [5] > 100 µM | [6] 68.4 µM | [7] > 100 µM | [8] > 100 µM | [9] 81.3 µM | [10] > 100 µM | [11] 44.8 µM | [12] > 100 µM | [15] 38 µM | [16] > 100 µM | [14] 18.2 µM

Cc1ccc(S(=O)(=O)c2ccc(NC(=O)SCCC(=O)O)cc2)cc1
inactive: [1] > 100 µM | [2] > 100 µM | [3] > 100 µM | [4] 5.14 µM | [5] > 100 µM | [6] > 100 µM | [8] > 100 µM | [9] > 100 µM | [10] 17.8 µM | [11] > 100 µM | [12] > 100 µM | [13] > 100 µM | [15] > 100 µM | [16] > 100 µM | [14] > 100 µM

NC(=S)N/N=C(\C(=O)Nc1cccc([N+](=O)[O-])c1)c1nc2ccc([N+](=O)[O-])cc2nc1O
inactive: [2] 89.5 µM | [3] 56.8 µM | [4] > 100 µM | [5] > 100 µM | [6] > 100 µM | [7] > 100 µM | [8] 88.9 µM | [9] > 100 µM | [10] > 100 µM | [11] 18.2 µM | [12] > 100 µM | [13] 34.7 µM | [15] 3.85 µM | [16] 40.6 µM | [14] > 100 µM

[Zn+2][N+]12CCN3CCN4CCN(CC1)[PH]432 (centres undefined)
inactive: [1] > 100 µM | [2] > 100 µM | [3] > 100 µM | [4] > 100 µM | [5] > 100 µM | [6] > 100 µM | [7] > 100 µM | [8] > 100 µM | [9] > 100 µM | [10] > 100 µM | [11] > 100 µM | [12] > 100 µM | [13] > 100 µM | [15] > 100 µM | [16] > 100 µM | [14] > 100 µM

COc1ccc(S(=O)(=O)NNS(C)(=O)=O)cc1
inactive: [1] > 100 µM | [2] > 100 µM | [3] > 100 µM | [4] > 100 µM | [5] > 100 µM | [6] > 100 µM | [8] > 100 µM | [10] > 100 µM | [11] > 100 µM | [12] > 100 µM | [13] > 100 µM | [15] > 100 µM | [16] > 100 µM | [14] > 100 µM

CC(C)(C)c1cc(Cc2ccc([N+](C)(C)C)cc2)c(O)c(C(C)(C)C)c1
inactive: [1] 14.9 µM | [2] 9.59 µM | [3] 16.6 µM | [4] 14.2 µM | [5] 24.6 µM | [6] 12.9 µM | [7] 25.2 µM | [8] 18.2 µM | [9] 12.5 µM | [10] 9.2 µM | [11] 11.8 µM | [12] 24.2 µM | [13] 16.4 µM | [16] 15.7 µM | [14] 95.3 µM

CC(=O)Nc1ccc(-c2nnc(SCC(=O)Nc3ccc(C)cc3)o2)cc1
inactive: [1] 15.8 µM | [2] 42.4 µM | [3] 56.2 µM | [4] 12.9 µM | [5] 27.8 µM | [7] 49.2 µM | [8] 16.1 µM | [9] 16.1 µM | [10] 16.4 µM | [11] 32.1 µM | [12] 17 µM | [13] 15.2 µM | [15] 18.2 µM | [16] 19.1 µM | [14] 47.6 µM

CC(=O)N1C/C(=C\c2ccc(N(C)C)cc2)C(=O)/C(=C/c2ccc(N(C)C)cc2)C1
inactive: [1] 72.3 µM | [2] 60 µM | [3] > 100 µM | [4] 53.2 µM | [5] 75.7 µM | [6] 24.8 µM | [7] 55.7 µM | [8] 40.1 µM | [9] > 100 µM | [10] 17.2 µM | [11] 51.4 µM | [12] 39.4 µM | [13] 35.3 µM | [16] 35.7 µM | [14] > 100 µM

CN(C)CCC(CCN(C)C)=NOC(=O)c1ccccc1
inactive: [1] > 100 µM | [2] > 100 µM | [3] > 100 µM | [4] > 100 µM | [5] > 100 µM | [6] > 100 µM | [7] > 100 µM | [8] > 100 µM | [9] > 100 µM | [10] > 100 µM | [11] > 100 µM | [12] > 100 µM | [15] > 100 µM | [16] > 100 µM | [14] > 100 µM
